Source: paper PMC4619459, “Metabolism of β-valine via a CoA-dependent ammonia lyase pathway” (Applied Microbiology and Biotechnology, 2015)

Columns and labels:
Assay type in all cases: biochemical
BvaB1-His [1] = molecular target: T1, BvaB1-His (Pseudomonas sp. SBV1, UniProt A0A0C4UTI5); assay: UPLC-MS (m/z […]) and HPLC; details: substrate made in situ by BvaA-His, not purified; 50 mM HEPES, 150 mM NaCl, 5 mM MgCl2, pH 8
T1 sequence (A0A0C4UTI5 1-253): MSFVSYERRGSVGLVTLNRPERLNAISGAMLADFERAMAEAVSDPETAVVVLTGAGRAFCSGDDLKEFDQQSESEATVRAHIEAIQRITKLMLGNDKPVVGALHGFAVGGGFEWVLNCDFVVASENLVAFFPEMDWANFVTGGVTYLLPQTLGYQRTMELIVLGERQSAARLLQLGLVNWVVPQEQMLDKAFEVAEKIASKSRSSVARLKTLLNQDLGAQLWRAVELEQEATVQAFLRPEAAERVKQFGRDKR

BvaB2-His [2] = molecular target: T2, BvaB2-His (Pseudomonas sp. SBV1, UniProt A0A0C4USU5); assay: UPLC-MS (m/z […]) and HPLC; details: substrate made in situ by BvaA-His, not purified; 50 mM HEPES, 150 mM NaCl, 5 mM MgCl2, pH 8
T2 sequence (A0A0C4USU5 1-266): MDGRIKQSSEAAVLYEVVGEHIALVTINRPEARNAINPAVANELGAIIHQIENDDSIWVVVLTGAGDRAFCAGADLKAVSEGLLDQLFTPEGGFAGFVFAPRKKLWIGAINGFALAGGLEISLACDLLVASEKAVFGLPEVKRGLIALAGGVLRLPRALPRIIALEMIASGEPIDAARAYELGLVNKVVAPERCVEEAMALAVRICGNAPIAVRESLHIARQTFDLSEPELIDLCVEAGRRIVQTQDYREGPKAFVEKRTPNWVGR

BvaA-His [3] = molecular target: T3, BvaA-His (Pseudomonas sp. SBV1, UniProt A0A0C4UT64); assay: HPLC of AMP formation; details: 2.5 mM β-valine, 2.5 mM CoA, 5 mM MgCl2, 50 mM HEPES, 150 mM NaCl, pH 8, 30 °C
BvaA-His [4] = molecular target: T3, BvaA-His; assay: UPLC-MS of CoA adduct; HPLC of AMP formation; details: 5 mM ATP, 2.5 mM CoA, 5 mM MgCl2, 50 mM HEPES, 150 mM NaCl, pH 8, 30 °C
BvaB1-His [5] = molecular target: T1, BvaB1-His; assay: HPLC of substrate depletion; UPLC-MS; details: substrate made in situ by BvaA-His, not purified; 50 mM HEPES, 150 mM NaCl, 5 mM MgCl2, pH 8
BvaB2-His [6] = molecular target: T2, BvaB2-His; assay: HPLC of substrate depletion; UPLC-MS; details: substrate made in situ by BvaA-His, not purified; 50 mM HEPES, 150 mM NaCl, 5 mM MgCl2, pH 8

T3 sequence (A0A0C4UT64 entry or part of it): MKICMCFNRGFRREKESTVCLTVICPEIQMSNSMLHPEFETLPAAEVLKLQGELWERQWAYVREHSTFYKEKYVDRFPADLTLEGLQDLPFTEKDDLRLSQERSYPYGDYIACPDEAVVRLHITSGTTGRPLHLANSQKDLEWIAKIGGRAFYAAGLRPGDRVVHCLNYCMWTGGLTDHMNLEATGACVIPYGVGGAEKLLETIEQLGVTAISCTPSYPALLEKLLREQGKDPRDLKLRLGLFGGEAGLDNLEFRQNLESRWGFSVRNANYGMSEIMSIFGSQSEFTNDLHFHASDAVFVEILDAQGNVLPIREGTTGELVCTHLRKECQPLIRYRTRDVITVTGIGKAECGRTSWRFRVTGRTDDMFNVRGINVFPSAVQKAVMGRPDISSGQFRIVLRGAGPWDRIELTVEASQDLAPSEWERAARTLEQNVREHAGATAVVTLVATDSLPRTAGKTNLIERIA

In the case of `CC(C)=CC(=O)SCCNC(=O)CCNC(=O)[C@H](O)C(C)(C)COP(=O)(O)OP(=O)(O)OC[C@H]1O[C@@H](n2cnc3c(N)ncnc32)[C@H](O)[C@@H]1OP(=O)(O)O` [3-methyl-crotonyl-CoA], the “UPLC-MS (m/z 849) and HPLC” value (BvaB1-His [1]) is reported as “This parent ion was observed in a mixture containing either BvaB1-His or BvaB2-His” and the “UPLC-MS (m/z 849) and HPLC” value (BvaB2-His [2]) is reported as “This parent ion was observed in a mixture containing either BvaB1-His or BvaB2-His”.
With `Nc1ncnc2c1ncn2[C@@H]1O[C@H](COP(=O)(O)OP(=O)(O)OP(=O)(O)O)[C@@H](O)[C@H]1O` [ATP] the “HPLC of AMP formation” value (BvaA-His [3]) was “able to convert β-valine to β-valinyl-CoA in an ATP- and CoA-dependent manner”.
With `CC(C)(N)CC(=O)O` [β-valine] the “UPLC-MS of CoA adduct; HPLC of AMP formation” value (BvaA-His [4]) was “both the β-valinyl-CoA and the AMP levels increased in time”.
With `CC(C)(N)CC(=O)SCCNC(=O)CCNC(=O)[C@H](O)C(C)(C)COP(=O)(O)OP(=O)(O)OC[C@H]1O[C@@H](n2cnc3c(N)ncnc32)[C@H](O)[C@@H]1OP(=O)(O)O` [β-valinyl-CoA] the “HPLC of substrate depletion; UPLC-MS” value (BvaB1-His [5]) was “both expected β-valinyl-CoA ammonia lyases are able to convert β-valinyl-CoA to 3-methyl-crotonyl-CoA” and the “HPLC of substrate depletion; UPLC-MS” value (BvaB2-His [6]) was “both expected β-valinyl-CoA ammonia lyases are able to convert β-valinyl-CoA to 3-methyl-crotonyl-CoA”.
